Data on twelve compounds can be found in ChEMBL document CHEMBL1144227, “2,2'-Pyridoin derivatives protect HL-60 cells against oxidative stress” (Bioorg Med Chem Lett, 2008).

Each structure is given as a SMILES string. The source made the active and inactive calls. The calls are words filed in the database; no cut-off is given here.

The subject of data set [1] is HL-60. The data set is described as follows: Toxicity against human HL-60 cells at 100 uM after 24 hrs by trypan blue exclusion assay. The format is cell-based. The note with it: hl-60, 24 h.
The test system of data set [2] is HL-60. The data set is described as follows: Cytoprotective activity against hydrogen peroxide-induced cell death in human HL-60 cells assessed as cell viability at 30 uM after 24 hrs by trypan blue exclusion assay. The format is functional. The conditions noted are these: for viability at 30 µM: HL-60, 24 h, read-out: Activity.
Data set [3] in a line: Antioxidant activity assessed as inhibition of lipid peroxidation. The format is functional.
Data set [4] relates to HL-60. As to the kind of experiment: Radical scavenging activity in human HL-60 cells assessed as reduction of hydrogen peroxide-induced ROS generation at 30 uM after 1 hr by 2',7'-dichlorofluorescein diacetate based flow cytometry. The format is functional, cell-based. (In general: In flow cytometry, cells or beads pass a laser one at a time.)
The test system of data set [5] is HL-60. The data set is described as follows: Toxicity against human HL-60 cells at 60 uM after 24 hrs by trypan blue exclusion assay. The format is cell-based. The conditions noted are these: hl-60, 24 h.
Data set [6] has as its system HL-60. As to the kind of experiment: Radical scavenging activity in human HL-60 cells assessed as reduction of hydrogen peroxide-induced ROS generation at 30 uM administered 3 hrs before H2O2 challenge measured after 1 hr by 2',7'-dichlorofluorescein diacetate based flow cytometry. The format is functional, cell-based.

For the compound `Cc1cccc(C(=O)C(=O)c2cccc(C)n2)n1`, the Activity entry with HL-60 [1] is given as “Non-toxic”. The result in the data set on HL-60 [2] was Active.
Turning to `Cc1ccc(/C(O)=C(\O)c2ccc(C)cn2)nc1`, the outcome (in data set [3]; with HL-60 [4]) was Active. Besides, the Activity result in the data set with HL-60 [5] is “Non-toxic”. For the same compound, in the data set with HL-60 [2], the viability at 30 µM was found to be 51.9%.
As to `O=C1O[C@H]([C@@H](O)CO)C(O)=C1O` [ASCORBIC ACID], the outcome in the data set with HL-60 [4] and in the data set on HL-60 [6] was Active. Further, the viability at 30 µM with HL-60 [2] came out at 37.9%.
For the compound `Cc1cc(C(C)(C)C)c(O)c(C(C)(C)C)c1` [BUTYLATED HYDROXYTOLUENE], in the data set on HL-60 [1], the Activity result was “Toxic”.
`COc1ccc(C(=O)C(=O)c2ccc(OC)cn2)nc1`: in the data set with HL-60 [1], the Activity entry is reported as “Non-toxic”. Besides, in the data set with HL-60 [2], the outcome was inactive.
Take `COc1ccc(/C(O)=C(\O)c2ccc(OC)cn2)nc1`: the result (in data set [3]; with HL-60 [4]) was Active. The Activity entry in the data set with HL-60 [5] is “Non-toxic”. Besides, the viability at 30 µM in the data set with HL-60 [2] was 51.9%.
For `COc1cccc(C(=O)C(=O)c2cccc(OC)n2)n1`, the Activity result in the data set with HL-60 [1] was “Non-toxic”. For the same compound, in the data set with HL-60 [2], the outcome was Active.
For the compound `Cc1cccc(/C(O)=C(\O)c2cccc(C)n2)n1`, the result in the data set on HL-60 [4] was Active. In the data set with HL-60 [1], the Activity result was “Non-toxic”. The viability at 30 µM in the data set with HL-60 [2] is 51.9%.
For the compound `Cc1ccc(C(=O)C(=O)c2ccc(C)cn2)nc1`, the Activity result in the data set on HL-60 [1] is “Non-toxic”. In addition, in the data set with HL-60 [2], the result was Active.
The corresponding values for `O=C(C(=O)c1ccccn1)c1ccccn1` are “Non-toxic” and “Active”.
Turning to `COc1cccc(/C(O)=C(\O)c2cccc(OC)n2)n1`, the outcome (in data set [3]; in the data set on HL-60 [4]) was Active. In addition, the Activity entry in the data set on HL-60 [1] was “Non-toxic”. Moreover, the viability at 30 µM in the data set on HL-60 [2] was 51.9%.
With `O/C(=C(/O)c1ccccn1)c1ccccn1`, the result with HL-60 [4] was Active. Further, the Activity entry in the data set on HL-60 [1] is given as “Non-toxic”. Besides, the viability at 30 µM in the data set with HL-60 [2] turned out to be 42.1%.
